Where two headings read alike, the source gives them in different places.
Assays:
[1] = tested on: uterus and vagina of ovariectomized mice; test: Uterine and vaginal weight in ovariectomized mice treated or not with estrone (9 days oral); format: in vivo, BALB/c mice; conditions: for Inhibition of estrone-stimulated uterine weight / Inhibition of estrone-stimulated vaginal weight: 9 days, OVX mice + E1
Description: (St-Constant, Quebec, Canada) and housed 5 per cage in a temperature (23±1° C.)—and light (12 h light/day, lights on at 7:15)—controlled environment. The mice were fed rodent chow and tap water ad libitum. […] Ten mice were kept intact as controls. […] Compounds were dissolved in ethanol (4% final concentration) and administered in 0.4% methylcellulose. Mice in the intact and OVX control groups received the vehicle alone (4% ETOH-0.4% methylcellulose) during the 9-day period. The animals were killed by exsanguination at the abdominal aorta on the 11th morning following ovariectomy.

[2] = tested on: ovariectomized female rats; test: Prevention of bone loss, body fat, serum cholesterol and ALP, 26-week treatment of OVX rats (Example 5A, experiment 2); format: in vivo, Sprague-Dawley rats; conditions: OVX rats, 26 weeks
Description: Ten to twelve week-old female Sprague-Dawley rats (Crl:CD(SD)Br) (Charles River Laboratory, St-Constant, Canada) weighing approximately 220-270 g at start of treatment were used. The animals were acclimatized to the environmental conditions (temperature: 22±3° C.; humidity: 50±20%; 12-h light-12-h dark cycles, lights on at 07:15 h) for at least 1 week before starting the experiments. The animals were housed individually and were allowed free access to tap water and a pelleted certified rodent feed (Lab Diet 5002, Ralston Purina, St-Louis, Mo.). Experiments were conducted in an animal facility approved by the Canadian Council on Animal Care (CCAC) and the Association for Assessment and Accreditation of Laboratory Animal Care (AAALAC) in accordance with the CCAC Guide for Care and Use of Experimental Animals.
On day 1 of the study, the animals of the appropriate groups were bilaterally OVX under isoflurane anesthesia. Tested compounds were administered as suspension in 0.4% methylcellulose by oral gavage. Treatments were initiated on day 2 of the study and were performed once daily during 26 weeks. In both experiments, animals not receiving a test article were treated with the appropriate vehicle alone during the same period.
After 3 months (experiment 1) or 26 weeks (experiment 2) of treatment, individual rats under Isoflurane anesthesia had their whole body skeleton and lumbar spine scanned using dual energy x-ray absorptiometry (DEXA; QDR 4500A, Hologic, Waltham, Mass.) and a Regional High Resolution Scan software. The bone mineral density (BMD) of the lumbar spine (vertebrae L2 to L4) and the total body composition (fat percentage) were determined.
After 3 months (experiment 1) or 26 weeks (experiment 2) of treatment, blood samples were collected at the jugular vein from overnight fasted animals (under Isoflurane anesthesia). Samples were processed for serum preparation and frozen at −80° C. until assay. Serum cholesterol levels and alkaline phospatase activity (ALP) were determined using the Boehringer Mannheim Diagnostic Hitachi 911 Analyzer (Boehringer Mannheim Diagnostic Laboratory Systems).

MCF-7 cells = test: Proliferation of human breast cancer MCF-7 cells (DNA content); format: cell-based; conditions: for IC50: Homo sapiens, read-out: Inhibition of 1nM E2 stimulation of DNA by tested compounds IC50
Description: The MCF-7 human breast adenocarcinoma cell line was derived from the pleural effusion of a patient. MCF-7 cells were used between passages 148 and 165 and subcultured weekly
Cells in their late logarithmic growth phase were harvested with 0.1% pancreatin (Sigma) and resuspended in the appropriate medium containing 50 ng bovine insulin/ml and 5% (v/v) FBS treated twice with dextran-coated charcoal to remove endogenous steroids. Cells were plated in 24-well Falcon plastic culture plates (2 cm^2/well) at the indicated density and allowed to adhere to the surface of the plates for 72 h. Thereafter, medium was replaced with fresh medium containing the indicated concentrations of compounds diluted from 1000×stock solutions in 99% redistilled ethanol in the presence or absence of E2. Control cells received only the ethanolic vehicle (0.1% EtOH,v/v). Cells were incubated for the specified time intervals with medium changes at 2-or 3-day intervals. Cell number was determined by measurement of DNA content.
Dose-response curves as well IC50 values were calculated using a weighted iterative nonlinear least-squares regression. All results are expressed as means±SEM.

[3] = alone, absence of estrone, both doses used

SMILES: CC1=C(c2ccc(O)cc2)[C@H](c2ccc(OCCN3CCCCC3)cc2)Oc2cc(O)ccc21.Cl [EM-652.HCl, (S)-(+)-7-hydroxy-3-(4′-hydroxyphenyl)-4-methyl-2-(4″-(2′″-piperidinoethoxy)phenyl)-2H-1-benzopyran hydrochloride]
- Inhibition of estrone-stimulated uterine weight ([1]; 1 μg daily oral): 24%
- Inhibition of estrone-stimulated vaginal weight ([1]; 1 μg daily oral): 10%
- Inhibition of estrone-stimulated uterine weight ([1]; 3 μg daily oral): 48%
- Inhibition of estrone-stimulated vaginal weight ([1]; 3 μg daily oral): 25%
- Inhibition of estrone-stimulated uterine weight ([1]; 10 μg daily oral): 72%
- Inhibition of estrone-stimulated vaginal weight ([1]; 10 μg daily oral): 53%
- Stimulatory effect on uterine weight [1, 3]: no significant stimulatory effect
- Stimulatory effect on vaginal weight [1, 3]: no significant stimulatory effect
- Serum ALP [2]: 78 ± 4 IU
- Serum cholesterol [2]: 0.98 ± 0.06 mmol/L
- IC50 (MCF-7 cells; MCF7, MCF-7, Experiment 2): 205 pM
- IC50 (MCF-7 cells; MCF7, MCF-7, Experiment 1): 796 pM
- Maximal stimulation of DNA by tested compounds (MCF-7 cells; MCF-7, Experiment 1): N.S.
- Stimulation of DNA by tested compounds (MCF-7 cells; MCF-7, Experiment 2): N.S.
